Measurements: ChEMBL document CHEMBL1641410, “In silico discovery of acylated flavonol monorhamnosides from Eriobotrya japonica as natural, small-molecular weight inhibitors of XIAP BIR3” (Bioorg Med Chem, 2011)
pIC50: −log10 of the molar value.

What was measured:
[1] = biological target: E3 ubiquitin-protein ligase XIAP (Homo sapiens, UniProt P98170); test: Displacement of fluorescent SM5F peptide from XIAP linker BIR3 domain after 3 hrs by fluorescence polarization assay
[2] = Chemical stability of the compound after 15 hrs; assay type: physicochemical

Sequence of E3 ubiquitin-protein ligase XIAP (P98170 whole entry, the tested form may be a part): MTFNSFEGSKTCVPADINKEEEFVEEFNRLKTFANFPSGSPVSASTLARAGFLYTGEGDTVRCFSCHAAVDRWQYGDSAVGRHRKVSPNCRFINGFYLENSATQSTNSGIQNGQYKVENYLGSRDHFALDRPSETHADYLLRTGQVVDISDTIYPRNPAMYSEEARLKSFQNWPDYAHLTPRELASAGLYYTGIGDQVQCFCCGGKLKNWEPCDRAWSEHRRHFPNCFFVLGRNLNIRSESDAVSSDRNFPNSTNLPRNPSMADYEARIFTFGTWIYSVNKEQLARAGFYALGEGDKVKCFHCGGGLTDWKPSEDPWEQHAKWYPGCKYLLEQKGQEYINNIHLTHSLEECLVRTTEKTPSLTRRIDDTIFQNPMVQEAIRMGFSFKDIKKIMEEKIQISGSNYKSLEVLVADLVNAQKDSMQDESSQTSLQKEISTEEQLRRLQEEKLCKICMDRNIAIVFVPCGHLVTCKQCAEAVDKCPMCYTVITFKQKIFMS

Row | pIC50 [1] | Stability [2] | SMILES
1 | < 4.00 | – | O=c1c(O)c(-c2ccc(O)cc2)oc2cc(O)cc(O)c12 [KAEMPFEROL]
2 | < 4.98 | Stable | C[C@@H]1O[C@@H](Oc2c(-c3ccc(O)cc3)oc3cc(O)cc(O)c3c2=O)[C@H](OC(=O)/C=C/c2ccc(O)cc2)[C@H](O)[C@H]1OC(=O)/C=C/c1ccc(O)cc1
